The first assay relates to NnOMT6N323A. Description: In vitro enzymatic activity test of NnOMT6N323A (O-methylation of benzylisoquinoline substrates, UPLC-QTOF-MS/MS). Particulars: mutant versus wild-type, FIG. 4. The assay is classed as biochemical, Nelumbo nucifera. Here is the method:
(§1) An in vitro enzymatic activity reaction was conducted at a pH value of 8.0 and 37° C. for 12 h in a 100 μL system containing 50 mM of a potassium phosphate buffer, 100 μM of a substrate, 200 μM of a SAM donor, and 50 μg of the purified protein. 100 μL of methanol was added to terminate the above reaction, the protein was centrifuged at 12,000×g for 30 min in a centrifuge, and a resulting supernatant was passed through a 0.22 μm microporous membrane and injected into UPLC-QTOF-MS/MS for detection. A sample prepared in a same way with boiled purified protein was served as a negative control.
The NnOMT6N323A was studied for substrate promiscuity with 15 benzylisoquinoline compounds (norcoclaurine (1), coclaurine (2), N-methylcoclaurine (3), norarmepavine (4), armepavine (5), lotusine (6), asimilobine (7), N-methlyasimilobine (8), lirinidine (9), liensinine (10), isoliensinine (11), neferine (12), scoulerine (13), tetrahydrocolumbamine (14), and jatrorrhizine (15)).
The chromatographic conditions were as follows: a chromatographic column was an ACQUITY UPLC CSH C18 column (2.1 mm×50 mm, 1.7 μm). A mobile phase A was 0.1% formic acid water, and a mobile phase B was acetonitrile; gradient elution was conducted, including: 0-0.5 min, 2% B; 0.5-1 min, 2%-5% B; 1-5 min, 5%-9% B; […], 9%-10% B; […], 10%-15% B; 16-20 min, 15%-45% B; 20-22 min, 45% B-100% B. A sample injection volume was 2 μL, a column temperature was 35° C., and a flow rate was 0.3 mL/min.
The mass spectrometry conditions were as follows: an ion source was a Dusal ESI source; the substrate was detected in a positive ion (PI) mode with a scan range of m/z 100-1000. […] MS/MS analysis was conducted with a collision energy of 30 eV and a collision energy voltage of 20 V.
Turning to `COc1cc2c(cc1O)C(Cc1ccc(O)cc1)NCC2` (stereo not drawn) [Compound 2, coclaurine], the “enhancement of catalytic activity of mutant NnOMT6N323A compared with wild-type O-methyltransferase” value is “about two times”.

Still in this assay, the particulars now being: pH 8.0, 37° C., 12 h; 100 μM substrate, 200 μM SAM, 50 μg purified protein.
For `Oc1ccc(CC2NCCc3cc(O)c(O)cc32)cc1` (stereo not drawn) [Compound 1, norcoclaurine], the “catalytic (O-methylation) activity of NnOMT6N323A on substrate, in words” value (shortened to “catalytic (O-methylation) activity”) is listed as “could catalyze the O-methylation” and the “conversion rate (O-methylation of substrate by NnOMT6N323A)” value (“conversion rate” below) amounted to 63.7%. In the same order, the values of `COc1cc2c(cc1O)C(Cc1ccc(O)cc1)NCC2` (stereo not drawn) [Compound 2, coclaurine] are “could catalyze the O-methylation” and 34.8%. In the same order, the values of `COc1cc2c(cc1O)[C@@H](Cc1ccc(O)cc1)N(C)CC2` [Compound 3, N-methylcoclaurine] are “could catalyze the O-methylation” and 47.6%. For `COc1cc2c(cc1O)[C@@H]1Cc3ccc(OC)c(O)c3CN1CC2` [Compound 13, scoulerine], the “catalytic (O-methylation) activity” value is reported as “could catalyze the O-methylation”. Same read-out and setting: for `COc1cc2c(cc1OC)[C@@H]1Cc3ccc(OC)c(O)c3CN1CC2` [Compound 13a, tetrahydropalmatrubine] the value was “further catalyzed”. Consider `COc1cc2c(cc1O)[C@@H]1Cc3ccc(OC)c(OC)c3CN1CC2` [Compound 14, tetrahydrocolumbamine], for which the “catalytic (O-methylation) activity” value is “could catalyze the O-methylation” and the “conversion rate” value is “about 42.3%”. Consider `COc1cc2c(cc1O)CC[n+]1cc3c(OC)c(OC)ccc3cc1-2` [Compound 15, jatrorrhizine], for which the “catalytic (O-methylation) activity” value is given as “no activity”. Turning to N-methlyasimilobine [Compound 8], the “catalytic (O-methylation) activity” value is “could catalyze the O-methylation” and the “conversion rate” value worked out at 55.4%. For asimilobine [Compound 7], the “catalytic (O-methylation) activity” value is “could catalyze the O-methylation” and the “conversion rate” value was 60.8%.

Take lirinidine [Compound 9]: the “catalytic (O-methylation) activity” value is “no catalytic activity”.

Another assay deals with wild-type O-methyltransferase. Kind of assay: In vitro enzymatic activity of wild-type O-methyltransferase (comparison with mutant). The assay is classed as biochemical, Nelumbo nucifera. Particulars: same method as Example 1. As for the experimental part: as §1
A specific experimental method was the same as that in Example 1.
For `COc1cc2c(cc1O)[C@@H]1Cc3ccc(OC)c(OC)c3CN1CC2` [Compound 14, tetrahydrocolumbamine], the “catalytic activity of wild-type O-methyltransferase on substrate, in words” value was “no catalytic activity”.

The record behind these values is patent US12091696B2, “O-methyltransferase protein with highly specific catalytic function for multiple bias parent nuclei and encoding gene and use thereof” (INSTITUTE OF CHINESE MATERIA MEDICA CHINA ACADEMY OF …, priority 2023, dated 2024).
